Several values for one entry are separate records, joined by “and”; a condition that tells them apart may be missing. Equal entries are not always repeated. Where two headings read alike, the source gives them in different places.
Experiments:
CB1 cannabinoid receptor = molecular target: T1, CB1 cannabinoid receptor (Rattus norvegicus, UniProt P20272); test: CB1 receptor binding, rat forebrain membranes, [3H] CP-55,940 displacement; details: for Ki: 0.8 nM [3H] CP-55,940
T1 construct: membranes were prepared from rat forebrain membranes; from tissue; host or cells: rat forebrain
Method: Some of the inventive analogs were tested for CB2 receptor binding affinity and for CB1 receptor affinity (to determine selectivity). […] The lower the Ki value the higher the binding affinity. […]
Membranes, previously frozen at −80° C., were thawed on ice. To the stirred suspension was added three volumes of TME (25 mM Tris-HCl buffer, 5 mM MgCl2 and 1 mM EDTA) at a pH 7.4. The suspension was incubated at 4° C. for 30 min. At the end of the incubation, the membranes were pelleted and washed three times with TME.
(§1) The treated membranes were subsequently used in the binding assay described below. Approximately 30 μg of membranes were incubated in silanized 96-well microtiter plate with TME containing 0.1% essentially fatty acid-free bovine serum albumin (BSA), 0.8 nM [^3H] […] Radioactivity was detected using MicroScint 20 scintillation cocktail added directly to the dried filterplates, and the filterplates were counted using a Packard Instruments Top-Count. […] Data collected from three independent experiments performed with duplicate determinations was normalized between 100% and 0% specific binding for [^3H] […] The normalized data was analyzed using a 4-parameter nonlinear logistic equation to yield IC50 values.

CB2 receptor = molecular target: T2, CB2 receptor (Mus musculus, UniProt P47936); test: CB2 receptor binding, mouse spleen membranes, same manner as the CB1 binding assay; details: for Ki: [3H] CP-55,940; for selectivity CB2: ratio of CB1 Ki to CB2 Ki
T2 construct: membranes were prepared from frozen mouse spleen; from tissue; host or cells: mouse spleen
Method: Some of the inventive analogs were tested for CB2 receptor binding affinity and for CB1 receptor affinity (to determine selectivity). […] The lower the Ki value the higher the binding affinity.
as §1
Silanized centrifuge tubes were used throughout to minimize receptor loss due to adsorption. The CB2 binding assay was conducted in the same manner as for the CB1 binding assay. The binding affinities (Ki) were also expressed in nanomoles (nM).

[1] = rat forebrain membranes, read-out: affinities Ki CB1
[2] = affinities Ki CB2, mouse spleen membranes
[3] = mouse spleen membranes, read-out: affinities Ki CB2
[4] = affinities Ki CB1, rat forebrain membranes

T1 sequence (P20272 whole entry): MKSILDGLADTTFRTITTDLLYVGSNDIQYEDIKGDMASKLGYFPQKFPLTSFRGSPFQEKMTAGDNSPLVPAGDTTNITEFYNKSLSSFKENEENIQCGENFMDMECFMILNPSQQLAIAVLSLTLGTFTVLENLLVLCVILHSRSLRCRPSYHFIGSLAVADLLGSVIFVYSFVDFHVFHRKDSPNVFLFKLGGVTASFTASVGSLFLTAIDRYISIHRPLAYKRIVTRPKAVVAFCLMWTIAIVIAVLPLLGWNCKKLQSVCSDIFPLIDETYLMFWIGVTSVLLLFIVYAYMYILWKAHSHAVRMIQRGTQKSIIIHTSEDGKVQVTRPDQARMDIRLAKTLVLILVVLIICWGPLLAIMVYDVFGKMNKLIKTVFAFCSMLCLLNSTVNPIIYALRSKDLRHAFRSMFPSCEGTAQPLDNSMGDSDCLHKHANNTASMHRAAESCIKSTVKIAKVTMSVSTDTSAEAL
T2 sequence (P47936 whole entry): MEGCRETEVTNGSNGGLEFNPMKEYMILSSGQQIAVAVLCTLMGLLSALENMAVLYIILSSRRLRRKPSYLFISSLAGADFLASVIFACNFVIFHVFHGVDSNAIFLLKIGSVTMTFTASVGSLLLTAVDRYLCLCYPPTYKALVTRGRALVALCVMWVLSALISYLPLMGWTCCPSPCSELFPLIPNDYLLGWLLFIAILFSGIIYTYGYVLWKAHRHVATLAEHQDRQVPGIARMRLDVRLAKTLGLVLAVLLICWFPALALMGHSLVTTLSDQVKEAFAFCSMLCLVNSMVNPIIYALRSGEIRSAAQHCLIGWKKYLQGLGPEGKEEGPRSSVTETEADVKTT

| SMILES | Ki (CB1 cannabinoid receptor; [1]) | selectivity CB1 (CB1 cannabinoid receptor; ratio of CB2 Ki to CB1 Ki) | Ki (CB2 receptor; [2]) | Ki (CB2 receptor; [3]) | selectivity CB1 (CB1 cannabinoid receptor) | Ki (CB1 cannabinoid receptor; [4]) | selectivity CB2 (CB2 receptor) |
| --- | --- | --- | --- | --- | --- | --- | --- |
| Cc1c(C(O)C(O)c2ccccc2)nn(-c2ccc(Cl)cc2Cl)c1-c1ccc(Br)cc1 (stereo not shown) [Compound 1-28] | 1070 nM | 3.7 | 3930 nM |  |  |  |  |
| CN(C(=O)c1nn(-c2ccc(Cl)cc2Cl)c(-c2ccc(-c3ccncc3)cc2)c1CO)C1CCCCC1 [Compound 3-5] | 90 nM | 3.3 |  | 294 nM |  |  |  |
| CN(C(=O)c1nn(-c2ccc(Cl)cc2Cl)c(-c2ccc(-c3cccnc3)cc2)c1CO)C1CCCCC1 [Compound 3-4] | 227 nM | 3.3 |  | 759 nM |  |  |  |
| Cc1c(C(=O)NN2CCCCC2)nn(-c2ccc(Cl)cc2Cl)c1-c1ccc(Br)cc1 [Compound 3-16] | 17 nM | 52.8 |  | 897 nM |  |  |  |
| COCc1c(C(=O)NC23CC4CC(CC(C4)C2)C3)nn(-c2ccc(Cl)cc2Cl)c1-c1ccc(Br)cc1 [Compound 1-7] | 53 nM |  |  | 1680 nM | 32 |  |  |
| CCOCc1c(C(=O)NC2CCCCC2)nn(-c2ccc(Cl)cc2Cl)c1-c1ccc(Br)cc1 [Compound 1-10] | 54 nM | 16 |  | 842 nM |  |  |  |
| Cc1c(C(=O)Nc2ccc3ccccc3c2)nn(CCCCCCl)c1-c1ccccc1 [Compound 4-3] |  |  | 15.4 nM |  |  | 14.6 nM |  |
| Cc1c(NC(=O)OC2CCCCC2)nn(-c2ccc(Cl)cc2Cl)c1-c1ccc(Br)cc1 [Compound 3-9] | 69 nM | 6.5 |  | 449 nM |  |  |  |
| Cc1c(C(=O)NN2CCCCC2)nn(-c2ccc(Cl)cc2Cl)c1-c1ccc(-c2nnnn2C)cc1 [Compound 2-2] | 90 nM | 2.7 |  | 242 nM |  |  |  |
| Cc1c(C(=O)N(C)C2CCCCC2)nn(-c2ccc(Cl)cc2Cl)c1-c1ccc(-c2ccncc2)cc1 [Compound 3-6] | 189 nM | 17.4 |  | 3290 nM |  |  |  |
| Cc1c(C(=O)NN2CCCCC2)nn(-c2ccc(Cl)cc2Cl)c1-c1ccc(-c2nnn[nH]2)cc1 [Compound 2-1] | 455 nM | 1.5 |  | 702 nM |  |  |  |
| Cc1c(C(=O)NC23CC4CC(CC(C4)C2)C3)nn(CCCCCN=[N+]=[N-])c1-c1ccccc1 [Compound 4-11] |  |  | 0.965 nM and 1 nM |  |  | 3.96 nM and 4 nM | 4 |
| Cc1c(NC(=O)N2CCCCC2)nn(-c2ccc(Cl)cc2Cl)c1-c1ccc(Br)cc1 [Compound 3-13] | 47 nM | 6.0 |  | 284 nM |  |  |  |
| O=C(NN1CCCCC1)c1nn(-c2ccc(Cl)cc2Cl)c(-c2ccc(-c3nnn[nH]3)cc2)c1CO [Compound 2-4] | 1840 nM | 7.4 |  | 13600 nM |  |  |  |
| Cc1c(NC(=O)C2CCCCC2)nn(-c2ccc(Cl)cc2Cl)c1-c1ccc(Br)cc1 [Compound 3-14] | 4230 nM | 6.4 | 27100 nM |  |  |  |  |
| COCc1c(C(=O)NN2CCCCC2)nn(-c2ccc(Cl)cc2Cl)c1-c1ccc(Br)cc1 [Compound 1-8] |  | 31 | 561 nM |  |  | 19 nM |  |
| O=C(NN1CCCCC1)c1nn(-c2ccc(Cl)cc2Cl)c(-c2ccc(-c3cccnc3)cc2)c1CO [Compound 3-21] | 76 nM |  |  | 207 nM |  |  |  |
| CN(C(=O)c1nn(-c2ccc(Cl)cc2Cl)c(-c2ccc(-c3nnn[nH]3)cc2)c1CO)C1CCCCC1 [Compound 2-16] | 293 nM | 3.8 |  | 1120 nM |  |  |  |
| Cc1c(C(=O)N(C)C2CCCCC2)nn(-c2ccc(Cl)cc2Cl)c1-c1ccc(-c2nnnn2C)cc1 [Compound 2-14] | 1270 nM |  |  | 941 nM |  |  | 1.4 |
| Cc1c(C(=O)NN2CCCCC2)nn(-c2ccc(Cl)cc2Cl)c1-c1ccc(C(=O)O)cc1 [Compound 3-24] | 738 nM | 1.3 |  | 934 nM |  |  |  |
| Cc1c(C(=O)NC2CCCCC2)nn(-c2ccc(Cl)cc2Cl)c1-c1ccc(-c2nnn(C)n2)cc1 [Compound 2-9] | 20 nM | 19 |  | 381 nM |  |  |  |
| Cc1c(NC(=O)N(C)C2CCCCC2)nn(-c2ccc(Cl)cc2Cl)c1-c1ccc(Br)cc1 [Compound 3-11] | 29 nM | 31.6 |  | 917 nM |  |  |  |

| SMILES | Ki (CB1 cannabinoid receptor; [1]) | selectivity CB1 (CB1 cannabinoid receptor; ratio of CB2 Ki to CB1 Ki) | Ki (CB2 receptor; [2]) | Ki (CB2 receptor; [3]) | selectivity CB1 (CB1 cannabinoid receptor) | Ki (CB1 cannabinoid receptor; [4]) | selectivity CB2 (CB2 receptor) |
| --- | --- | --- | --- | --- | --- | --- | --- |
| CCOCc1c(C(=O)NN2CCCCC2)nn(-c2ccc(Cl)cc2Cl)c1-c1ccc(Br)cc1 [Compound 1-12] | 46 nM | 11 |  | 490 nM |  |  |  |
| CN(C(=O)Nc1nn(-c2ccc(Cl)cc2Cl)c(-c2ccc(Br)cc2)c1CO)C1CCCCC1 [Compound 2-21] | 296 nM | 15.1 |  | 4470 nM |  |  |  |
| CN(C(=O)c1nn(-c2ccc(Cl)cc2Cl)c(-c2ccc(Br)cc2)c1CO)C1CCCCC1 [Compound 3-1] | 29 nM | 62.1 |  | 1800 nM |  |  |  |
| Cc1c(C(=O)NC23CC4CC(CC(C4)C2)C3)nn(CCCCCI)c1-c1ccccc1 [Compound 4-10] |  |  | 1.01 nM and 1 nM |  |  | 1.34 nM and 1.3 nM | 1.3 |
| COCc1c(C(=O)NC2CCCCC2)nn(-c2ccc(Cl)cc2Cl)c1-c1ccc(-c2ccncc2)cc1 [Compound 1-19] | 160 nM | 18.6 |  | 2980 nM |  |  |  |
| CN(C)CCOCc1c(C(=O)NC2CCCCC2)nn(-c2ccc(Cl)cc2Cl)c1-c1ccc(Br)cc1 [Compound 1-16] | 24 nM | 5.8 |  | 140 nM |  |  |  |
| COCc1c(C(=O)NC2CCCCC2)nn(-c2ccc(Cl)cc2Cl)c1-c1ccc(I)cc1 [Compound 1-22] | 15 nM | 45 |  | 675 nM |  |  |  |
| O=C(Nc1nn(-c2ccc(Cl)cc2Cl)c(-c2ccc(Br)cc2)c1CBr)NC1CCCCC1 [Compound 3-7] | 38 nM | 3.6 |  | 136 nM |  |  |  |
| O=C(NC1CCCCC1)c1nn(-c2ccc(Cl)cc2Cl)c(-c2ccc(-c3nnn[nH]3)cc2)c1CO [Compound 2-10] | 192 nM | 2.4 |  | 463 nM |  |  |  |
| CN(C(=O)c1nn(-c2ccc(Cl)cc2Cl)c(-c2ccc(-c3nnn(C)n3)cc2)c1CO)C1CCCCC1 [Compound 2-18] | 210 nM | 3.0 |  | 641 nM |  |  |  |
| Cn1nnc(-c2ccc(-c3c(CO)c(C(=O)NC4CCCCC4)nn3-c3ccc(Cl)cc3Cl)cc2)n1 [Compound 2-12] | 37 nM | 1 |  | 36.5 nM |  |  |  |
| Cc1c(C(=O)NN2CCCCC2)nn(-c2ccc(Cl)cc2Cl)c1-c1ccc(-c2cccc(Cl)c2)cc1 [Compound 1-1] | 1.5 nM | 491 |  | 741 nM |  |  |  |
| Cc1c(C(=O)NC2CCCCC2)nn(-c2ccc(Cl)cc2Cl)c1-c1ccc(-c2nnnn2C)cc1 [Compound 2-8] | 120 nM | 8.9 |  | 1070 nM |  |  |  |
| Cc1c(NC(=O)NC2CCCCC2)nn(-c2ccc(Cl)cc2Cl)c1-c1ccc(Br)cc1 [Compound 3-8] | 6.8 nM | 635.2 |  | 4320 nM |  |  |  |
| CCOCc1c(C(=O)NC23CC4CC(CC(C4)C2)C3)nn(-c2ccc(Cl)cc2Cl)c1-c1ccc(Br)cc1 [Compound 1-11] | 105 nM | 452 |  | 47500 nM |  |  |  |
| Cc1c(C(=O)NC2CC(C)C3CC2C3(C)C)nn(CCCCCCl)c1-c1ccccc1 (stereo not shown) [Compound 4-7] |  |  | 2.76 nM and 2.8 nM |  |  | 4.73 nM and 4.7 nM | 1.7 |
| Cc1c(C(=O)NCC2CCC3CC2C3(C)C)nn(CCCCCCl)c1-c1ccccc1 (stereo not shown) [Compound 4-8] |  |  | 0.615 nM and 0.6 nM |  |  | 1.22 nM and 1.2 nM | 2 |
| COCc1c(C(=O)NC2CCCCC2)nn(-c2ccc(Cl)cc2Cl)c1-c1ccc(Br)cc1 [Compound 1-9] | 4 nM | 124 |  | 495 nM |  |  |  |
| Cc1c(NC(=O)NC2CCCCC2)nn(-c2ccc(Cl)cc2Cl)c1-c1ccc(I)cc1 [Compound 3-10] | 26 nM | 838.1 |  | 21800 nM |  |  |  |
| O=C(NN1CCCCC1)c1nn(-c2ccc(-c3cccnc3)cc2Cl)c(-c2ccc(-c3cccnc3)cc2)c1CO [Compound 3-20] | 154 nM | 10.9 |  | 1680 nM |  |  |  |
| Cc1c(C=Cc2ccccc2)nn(-c2ccc(Cl)cc2Cl)c1-c1ccc(Br)cc1 [Compound 1-23] | 331 nM | 49.6 |  | 16400 nM |  |  |  |

Source: patent publication US8084467B2, “Pyrazole derivatives as cannabinoid receptor antagonists” (University of Connecticut, priority 2004, dated 2011)
